# From patent US10130616B2, “Securinine and norsecurinine analogue compounds for the treatment of myeloid disorders” (Case Western Reserve University, priority 2013, dated 2018)
# pEC50, pIC50: −log10 of the molar value. Read-outs that look alike come from different tables or passages of the source.
# Columns and labels:
# HL-60 leukemic cells [1] = conditions: HL-60 cells; from U.S. patent application Ser. No. 14/029,066; cited from earlier work
# CD14 and CD11b = conditions: flow cytometry; cited from earlier work
# HL-60 cells [2] = assay: Growth of HL-60 cells (IC50); format: cell-based, human; conditions: value bracketed between tested concentrations, read-out: HL-60, IC50
# MOLT3 = assay: Growth inhibition of MOLT3 cells; format: cell-based; conditions: for pIC50: MOLT3 cells, read-out: MOLT3 IC50
# Experimental: (§1) In certain embodiments, securinine and norsecurinine analogues were administered to cancerous cells, such as acute myeloblastic leukemia cells (e.g., MOLT3 and OCI-AML3) and growth inhibition was analyzed. The analogues were effective in inhibiting myeloid growth in addition to promoting differentiation, and provide for reduced proliferation of acute myeloblastic leukemia cells (Table 2).
# OCI-AML3 = assay: Growth inhibition of OCI-AML3 cells; format: cell-based; conditions: for pIC50: OCI-AML3 cells, read-out: OCI-AML3 IC50
# Experimental: as §1
# HL-60 leukemic cells [3] = assay: Nitroblue Tetrazolium (NBT) reduction assay, differentiation of HL-60 leukemic cells; format: cell-based, human
# Description: In an aspect of the present disclosure, the compounds of the disclosure can be identified using a novel high-throughput screen that is biased to identify agents that have both a high potency and low toxicity in a myeloid disorder disease model, such as an animal or cell model. In some embodiments, the high-throughput screen measures the differentiation of HL-60 leukemic cells using a quantitative nitroblue tetrazolium (NBT) reduction assay. Screening HL-60 cells, human promyelocytic cells, is advantageous as they have been used extensively as a cell line to study myeloid differentiation. Though promyelocytic cells, HL-60 cells were derived from a patient with acute myeloblastic leukemia with maturation, FAB-M2.
# This technique has also been widely exploited in HL-60 cells to analyze myelomonocytic differentiation.
# The NBT screen works due to changes in the oxidoreductases during differentiation that lead to increases in rates of NBT reduction. NBT is reduced due to the production of superoxide that is catalyzed by an NADPH oxidase. […] NBT is reduced by superoxide from a soluble yellow compound to insoluble blue formazan granules whose formation can be monitored spectrophotometrically at 560 nm as the unreduced dye has minimal absorbance at this wavelength. A quantitative NBT reduction assay is ideal for this type of screen as it is simple, sensitive, quantitative, requires minimal cells, has been proven to have low well to well variability, and the amount of reduced NBT is proportional to the number of cells reducing the dye as well as the amount reduced by each cell.
# To discover novel AML differentiation-inducing compounds a rapid high-throughput screen (HTS) was developed and optimized. The screen was designed to be biased to identify compounds that, unlike the majority of known differentiation-inducing agents, have both high potency and low toxicity. The screen measured the differentiation of HL-60 leukemic cells using a quantitative Nitroblue Tetrazolium (NBT) reduction assay, a test that is used extensively as a measure of functional myelomonocytic differentiation. The basis for the screen is unreduced NBT exists as a yellow soluble dye. Differentiated leukemic cells are capable of producing a respiratory burst that can reduce NBT into a blue insoluble compound that can be measured spectrophotometrically. This forward chemical genetics approach allowed the discovery of novel compounds that can act on targets not previously known to be “drugable.” As only live cells can reduce NBT, the screen is biased in identifying relatively nontoxic compounds.
# To perform the screen, duplicate plates of HL-60 cells were cultured at a density of 5×10^4 cells/mL with 10 μM of each compound in 96 well plates for 5 days. To determine the relative capability for a compound to induce differentiation compared to known potent inducers, each plate destined for the NBT reduction assay included wells with 0.1% DMSO (vehicle control) and 1 μM ATRA. This approach eliminates any slight day to day variation in NBT reduction values and allows the discovery of compounds with similar or greater efficacy to ATRA. Differentiation was determined in the 96 well plates by incubating the cells with 1 mg/mL of NBT and 200 ng/mL of PMA as the stimulant for the respiratory burst for 35 minutes at 37° C. The reaction was then stopped with HCl and the formazan solubilized with DMSO. Finally, the reaction mixture was read spectrophotometrically at 560 nm in a plate reader.
# The securinine and norsecurinine analogues were tested and evaluated on their abilities to affect differentiation and growth of HL-60 cells (Table 1).
# HL-60 cells [4] = conditions: cited from earlier work
# cell cycle (G0/G1) = conditions: cited from earlier work
# [5] = test system: 60 cancer cell lines, normal human lymphocytes, normal human bone marrow, mouse embryonic fibroblasts, and human umbilical vein endothelial cells; conditions: 60 cancer cell lines and normal cells; cited from earlier work
# CEBPβ = conditions: cited from earlier work
# c-myc = conditions: cited from earlier work
# p21 = conditions: cited from earlier work
# p44/p42 and p38 = conditions: cited from earlier work
# leukemic cells = conditions: cited from earlier work
# [6] = test system: a variety of leukemic cell lines; conditions: cited from earlier work
# [7] = Homo sapiens, HL-60, HL-60 cells
# [8] = Homo sapiens, HL-60 cells, value bracketed between tested concentrations, read-out: HL-60, Dif50
# [9] = HL-60 cells, value bracketed between tested concentrations, read-out: HL-60, Dif50
SMILES,pIC50 (HL-60 cells [2]; [7]),"pIC50 (MOLT3; Homo sapiens, MOLT-3)","pIC50 (OCI-AML3; Homo sapiens, OCI-AML-3)",also measured
"CC1=C(/C=C/C(C)=C/C=C/C(C)=C/C(=O)O)C(C)(C)CCC1 [ATRA, all-trans-retinoic acid]",,,,"cells differentiated, NBT reduction assay (HL-60 leukemic cells [1]): ~95%; induction of cell surface markers CD14 and CD11b (CD14 and CD11b): primarily induces CD11b"
O=C1C=C2C(C#Cc3ccccc3)=C[C@@H]3C[C@@]2(O1)[C@H]1CCCCN31 [Compound 17],6.81 to 7.15,7.15,7.10,
CN(C)CC#CC1=C[C@@H]2C[C@@]3(OC(=O)C=C13)[C@H]1CCCCN21 [Compound 18],6.81 to 7.15,7.15,7.05,
CCOC#CC1=C[C@@H]2C[C@@]3(OC(=O)C=C13)[C@H]1CCCCN21 [Compound 22],6.20 to 6.51,6.71,6.66,
N#CCCCC#CC1=C[C@@H]2C[C@@]3(OC(=O)C=C13)[C@H]1CCCCN21 [Compound 26],,6.80,6.71,
C=C(C)CC#CC1=C[C@@H]2C[C@@]3(OC(=O)C=C13)[C@H]1CCCCN21 [Compound 28],6.51 to 6.81,6.78,6.70,
COc1ccc(C#CC2=C[C@@H]3C[C@@]4(OC(=O)C=C24)[C@H]2CCCCN32)cc1 [Compound 29],7.11 to 7.41,7.22,7.10,
O=C1C=C2C(C#Cc3ccsc3)=C[C@@H]3C[C@@]2(O1)[C@H]1CCCCN31 [Compound 31],6.51 to 6.81,7.22,7.12,
CCN(CC)CC#CC1=C[C@@H]2C[C@@]3(OC(=O)C=C13)[C@H]1CCCCN21 [Compound 35],,6.89,6.96,
CN(C)c1ccc(C#CC2=C[C@@H]3C[C@@]4(OC(=O)C=C24)[C@H]2CCCCN32)cc1 [Compound 36],6.51 to 6.81,6.94,6.98,
CCCN(CC#CC1=C[C@@H]2C[C@@]3(OC(=O)C=C13)[C@H]1CCCCN21)CCC [Compound 39],,7.10,7.15,
COc1ccc2cc(C#CC3=C[C@@H]4C[C@@]5(OC(=O)C=C35)[C@H]3CCCCN43)ccc2c1 [Compound 40],,7.05,6.98,
O=C1C=C2C(C#Cc3cc4ccccc4c4ccccc34)=C[C@@H]3C[C@@]2(O1)[C@H]1CCCCN31 [Compound 41],,,,"IC50 (MOLT3; Homo sapiens, MOLT-3, read-out: MOLT3 IC50 (nM)): 150 nM; IC50 (OCI-AML3; Homo sapiens, OCI-AML-3, read-out: OCI-AML3 IC50 (nM)): 180 nM"
N#Cc1ccc(C#CC2=C[C@@H]3C[C@@]4(OC(=O)C=C24)[C@H]2CCCCN32)cc1 [Compound 46],6.20 to 6.51,6.84,6.69,
COc1cccc(C#CC2=C[C@@H]3C[C@@]4(OC(=O)C=C24)[C@H]2CCCCN32)c1 [Compound 47],6.20 to 6.51,6.82,6.67,
O=C1C=C2C(C#Cc3ccc(OC(F)(F)F)cc3)=C[C@@H]3C[C@@]2(O1)[C@H]1CCCCN31 [Compound 48],6.20 to 6.51,< 6.52,< 6.52,
O=C1C=C2CC(n3ccnc3)[C@@H]3C[C@@]2(O1)[C@H]1CCCCN31 (stereo partly shown) [Compound 99],,,,pEC50 (HL-60 leukemic cells [3]; [8]): 4.70 to 4.82
CC(C)NCCSC1CC2=CC(=O)O[C@@]23C[C@@H]1N1CCCC[C@@H]13 (stereo partly shown) [Compound 100],,,,pEC50 (HL-60 leukemic cells [3]; [8]): 4.70 to 4.82
O=C1C=C2C[C@H](SCC(F)(F)F)[C@@H]3C[C@@]2(O1)[C@H]1CCCCN31 [INVS-MG-5B],,,,pEC50 (HL-60 leukemic cells [3]; [9]): < 4.52
COc1ccc(CN[C@@H]2CC3=CC(=O)O[C@@]34C[C@@H]2N2CCCC[C@@H]24)cc1 [INVS-MG-86C],,,,pEC50 (HL-60 leukemic cells [3]; [9]): < 4.52
CO[C@H]1CC2=CC(=O)O[C@@]23C[C@@H]1N1CCCC[C@@H]13 [INVS-MG-97-IIB],,,,pEC50 (HL-60 leukemic cells [3]; [9]): < 4.52
O=C1C=C2C(C#Cc3ccsc3)=C[C@@H]3C[C@@]2(O1)[C@H]1CCCCN31 [INVS-MG-136-III],,,,pIC50 (HL-60 cells [2]; HL-60 cells): > 7.15; pIC50 (MOLT3): 7.00; pIC50 (OCI-AML3): 6.94
C[N+]12CCCC[C@@H]1[C@]13C[C@H]2C=CC1=CC(=O)O3 (stereo partly shown) [Sec-1],,,,pEC50 (HL-60 leukemic cells [3]; [9]): < 4.52
"O=C1C=C2C=C[C@@H]3C[C@@]2(O1)[C@H]1CCCCN31 [Securinine, (6S,11aR,11bS)-9,10,11,11a-tetrahydro-8H-6,11b-methanofuro[2,3-c]pyrido[1,2-a]azepin-2(6H)-one]",,,,"pEC50 (HL-60 leukemic cells [3]; Homo sapiens, HL-60, read-out: HL-60, Dif50): 4.82 to 5.00; cells differentiated, NBT reduction assay (HL-60 leukemic cells [1]): ~95%; proliferation of HL-60 cells (HL-60 cells [4]): potently inhibits the proliferation of HL-60 cells; cell cycle distribution (cell cycle (G0/G1)): accumulation of cells in G0/G1; toxicity [5]: low toxicity; induction of cell surface markers CD14 and CD11b (CD14 and CD11b): induce CD14 and CD11b; CEBPβ expression (CEBPβ): time-dependent upregulation; c-myc expression (c-myc): potently downregulated; p21 protein (p21): upregulated; phosphorylation of p44/p42 and p38 (p44/p42 and p38): induces rapid phosphorylation of p44/p42 and p38; morphologic changes (leukemic cells): clear morphologic changes suggestive of monocytic differentiation; differentiation of leukemic cell lines [6]: can differentiate a variety of leukemic cell lines"
C=C1CC[C@H](O)C/C1=C/C=C1\CCC[C@]2(C)[C@@H]([C@H](C)CCCC(C)C)CC[C@@H]12 [vitamin D3],,,,induction of cell surface markers CD14 and CD11b (CD14 and CD11b): induce CD14 and CD11b
